Two substances from patent US7070807B2, “Branched histidine copolymers and methods for using same” (priority 1999, dated 2006) can be followed below.

Ends that are not written are not given here.

The subject of one test is tumor. Nature of the test: Intratumoral injection of branched polymer carrier of PCI-Luc, gene expression. Format: in vivo. Particulars: injected intratumorally. An excerpt: FIG. 20. Comparison of the in vitro and in vivo transfection efficiencies of branched transport polymers having different lysine content. In contrast to in vitro experiments, local injection of a branched polymer with a lower lysine content enhanced transfection. A) In vitro comparison of HH-K4b and HHH-K4b as gene delivery carriers of PCI-Luc.
In place of lysine or other cationic amino acids (e.g., ornithine and arginine), other amino acids may be substituted. The preferred amino acids to be substituted for lysines are hydrophilic amino acids such as asparagine or serine.

For test [1], the system named is MDA-MB-435 cells. The test is described as follows: In vitro transfection with polymer:DNA complex in the absence of liposomes, luciferase activity. Format: cell-based, human. Particulars: no liposomes. Here is the method:
4.5×10^4 cells (MDA-MB-435, NIH3T3 or CHO) were initially plated into 24 well dishes. After 48 hours, when the cells were 60 and 80% confluent, cells were transfected with a plasmid encoding luciferase (PCI-Luc). In transfection experiments, the copolymer was initially incubated with PCI-Luc for 30 minutes in OptiM. The amount of copolymer which varied from 0.25 nmole to 15 nmole was mixed with the plasmid or oligonucleotide. The concentration of DNA varied from 0.25 μg to 0.75 μg. No visible aggregation of the polymer with the plasmid DNA was apparent at these concentrations. Cationic liposomes were then added, gently mixed, and then allowed to stand for an additional 30 minutes. The polymer:liposome:DNA complex was then diluted with either OptiM or OptiM+10% serum. In experiments utilizing lysomotropic agents, either chloroquine (Sigma, St. Louis, Mo.) or bafilomycin Al (Sigma) was added to the media at concentrations of 10 ng/ml and 25 μM, respectively. Four hours after transfection, the complexes were removed and DMEM with 10% serum was added. Forty-eight hours later, luciferase levels were measured with the Turner 20/20 luminometer. Duplicates were done for each concentration and each experiment was performed twice.
Effect on transfection efficiency of a polymer:DNA complex: To determine the effect of branching on the transfection efficiency of a polymer:DNA complex, 7.5 nmol of H-K or 0.375 nmol of HH-K4b was mixed with PCI-Luc, and luciferase activity was measured as described above.
HH-K4b and HHH-K4b, respectively, have a histidine to lysine ratio of 1.5 and 2.4, respectively. […] In vitro transfection experiments were performed on MDA-MB-435 cells as described previously in 6.2 and 6.4.3. For the formation of the complex, 3.75 μg of polymer was mixed with 0.75 μg of PCI-Luc, and experiments were performed in a 24-well plates.

Test [2] has as its system MDA-MB-435 cells. Nature of the test: Uptake of polymer:fluorescein-labeled oligonucleotide complex, CytoFluor fluorescence. The class given is cell-based, human. Particulars: no liposomes; 0.75 μg 32-mer; 4 hour incubation, measured 24 hours later. Here is the method:
Effect on uptake of a polymer:oligonucleotide complex: In a second experiment, the same amount of HK or HHK4b was mixed with 0.75 μg of a 5′-end fluorescein-labeled randomly generated oligonucleotide(32-mer) for 30 minutes. This complex was added to the MDA-MB-435 cells for 4 hour incubation. Twenty-four hours later, the cells were then washed, and measured by CytoFluor fluorescence Measurement System. (Millipore, Bedford, Miss.).

The test system of test [3] is MDA-MB-435 tumors in nude mice. Nature of the test: In vivo tumor growth after intratumoral injection of HH-K4b:oligonucleotide complexes (DNAzyme against VEGF receptor mRNA). The following applies: SEM in parentheses. Here is the method: In vivo delivery of pharmaceutical agents. […] In this example, the receptor of VEGF mRNA with a DNA oligonucleotide that has enzymatic activity (also called DNAzyme) (36) was targeted. The VEGF receptor is essential for tumor angiogenesis and consequently tumor growth. After breast cancer cells (MDA-MB-435 cells) were injected into nude mice and the tumors grew to a visible size, the tumor was injected with the therapeutic polymer-DNA complex. The tumor was injected every 5 days for a total of 5 injections. There were 4 treatment groups: 1) untreated, 2) HH-K4B carrier alone, 3) HH-K4b+DNAzyme, and 4) HH-K4b+antisense oligonucleotides. To prepare the complex for injection, 45 μg of the HH-K4b polymer diluted in 150 μl of water was mixed with 24 μg of oligonucleotide, also diluted in 150 μl of water. After formation of the complex for 2 hours, 25 μl of the treatment complex was injected into each tumor. The therapeutic oligonucleotide sequence is 5′-TGCTCTCCA-GGCTAGCTACAACGA-CCTGCACCT-3′ (SEQ ID NO:18) whereas the control antisense oligonucleotide sequence is 5′-TGCTCTCCA-GGCTATGTACAACGA-CCTGCACCT-3′. (SEQ ID NO:19) The only difference between the therapeutic DNAzyme sequence and the antisense sequences is that the nucleotides responsible for cleaving the mRNA have been altered with the antisense DNA.

The test system of test [4] is mice with 66.1 cell lung metastases. Nature of the test: Intravenous delivery of polymer:liposome:PCI-Luc, lung luciferase activity. Format: in vivo. Particulars: complex with DOTAP/cholesterol liposomes, tumor laden mice, lungs six hours later. Here is the method:
FIG. 19. Branched transport polymer in combination with liposomes enhanced transfection efficiency when administered intravenously. Two weeks prior to injection of complex, 1.0×10^5 of 66.1 cells (a murine breast cancer cell line) were injected into mice to establish lung metastases. 6 μg of HH-K4b (volume-60 μl) was mixed with 30 μg of PCI-Luc (volume-60 μl). After 40 min, 18 μg of liposomes (DOTAP:cholesterol, volume-60 μl) was added and gently mixed for another 30 min. Total volume of the polymer: liposome: DNA solution is 180 μl. 0.28 μl of 1 M Hepes was mixed with H-K or HH-K4b solution, respectively, to neutralize to approximately pH-7.0. Liposome in complex with PCI-Luc complexes were prepared similarly. 150 μl of the complex solution was injected via the tail vein into the mice. Six hours later, the lungs were homogenized and the luciferase activity was measured in each group.
The liposomes were composed of DOTAP and cholesterol in a 1 to 1 molar ratio.

Turning to “[K-H-H-H-K-H-H-H-K-H-H-H-K-H-H-H-K]4K3 (KHHHKHHHKHHHKHHHK; also: four copies on branched lysine core (K3)) [HHH-K4b, branched polymer on lysine core]”, the “efficiency as carrier of nucleic acids compared to DOTAP liposomes or HH-K4b carrier” value with tumor was “much more efficient as a carrier of nucleic acids”.
Turning to “[KHKHHKHHKHHKHHKHHKHK]4K3 [HH-K4b]”, in the test with MDA-MB-435 cells [1] (3.75 μg polymer, 0.75 μg PCI-Luc), the “in vitro transfection compared to HHH-K4b” value was “significantly more effective transfection agent in vitro”. In addition, the “transfection efficiency of polymer:DNA complex compared to linear H-K polymer” value with MDA-MB-435 cells [1] (0.375 nmol HH-K4b vs 7.5 nmol H-K) was “better”. The “luciferase expression as sole carrier of DNA compared to HH-K3b, HH-K2b and H-K4b” value in the test with MDA-MB-435 cells [1] (data not shown) is on record as “better at enhancing luciferase expression”. In the test with MDA-MB-435 cells [2], the “uptake of oligonucleotides compared to linear HK polymer: oligonucleotides complex” value is listed as “significantly enhanced uptake”. Besides, the “tumor volume, 1st Injection” value in test [3] (measured before 1st injection (baseline)) is on record as 9.5 (1.1). In addition, the “tumor volume, 2nd Injection” value in test [3] (measured before 2nd injection, intratumoral every 5 days) is 63.7 (10.7). Besides, the “tumor volume, 3rd Injection” value in test [3] (measured before 3rd injection, intratumoral every 5 days) is given as 134 (30). Besides, the “tumor volume, 4th Injection” value in test [3] (measured before 4th injection, intratumoral every 5 days) is 236 (55). Moreover, the “tumor volume, 5th Injection” value in test [3] (measured before 5th injection, intratumoral every 5 days) was 429 (94). Further, the “gene (luciferase) expression compared to liposomes only” value in test [4] is 7 fold.
